From patent publication US6489313B1, “Memory by the administration of Δ5-androstene-3β-ol-7,17-dione and 3β esters” (Humanetics Corporation, priority 1998, dated 2002) come the findings set out here.

In one experiment the test system is Aged, two year old mice. As to the kind of experiment: Morris water maze procedure, aged mice. The class given is in vivo. The conditions noted are these: two weeks after treatment, DHEA 20 mg/kg or equimolar amount, control 36 seconds. The procedure:
Aged, two year old mice were tested in the Morris water maze procedure by training the mice to locate the pedestal in less than 15 seconds in three consecutive trials. Immediately upon completion of training one group of mice was treated with DHEA (20 mg/kg) and a second group treated with an eqimolar amount of Δ5-Androstene-3β-acetyl-7,17-dione. Two weeks after treatment the time to rescue was timed in the Morris water maze procedure at: Control 36 seconds, DHEA 27 seconds, and Δ5-Androstene-3β-acetyl-7,17-dione 13 seconds.

The next experiment deals with C57BL76 mice. As to the kind of experiment: Morris water maze procedure, scopolamine-induced amnesia. It counts as in vivo. How it is done: Groups of 13 to 16 C57BL76 mice (35 gm) were tested in the Morris. water maze procedure by training the mice to locate the pedestal in less than 15 seconds in three consecutive trials. Immediately upon completion of training the mice in each of three groups were treated with scopolamine (1 mg/kg), scopolamine+DHEA, or scopolamine+Δ5-Androstene-3β-acetyl-7,17-dione.

The mark [1] stands for this setting: C57BL76 mice (35 gm), scopolamine 1 mg/kg alone or with the steroid, six days after treatment, control 12.2±1.8.

Regarding `C[C@]12CC[C@H](O)CC1=CC[C@@H]1[C@@H]2CC[C@]2(C)C(=O)CC[C@@H]12` [DHEA, dehydroepiandrosterone], in the experiment on Aged, two year old mice, the “time to rescue in the Morris water maze procedure” value amounted to 27 s. Besides, the “average time to rescue in the Morris water maze procedure” value (from here on “average time to rescue”) in the experiment with C57BL76 mice (mouse, in vivo) is 9.7 ± 1.6 s.

Take `CN1[C@@H]2C[C@@H](OC(=O)[C@H](CO)c3ccccc3)C[C@H]1[C@@H]1O[C@@H]12` [scopolamine]: the “average time to rescue” value in the experiment on C57BL76 mice (setting [1]) came to 20.0 ± 3.6 s.

Regarding `CC(=O)O[C@H]1CC[C@@]2(C)C(=CC(=O)[C@@H]3[C@@H]2CC[C@]2(C)C(=O)CC[C@@H]32)C1` [Δ5-Androstene-3β-acetyl-7,17-dione], the “time to rescue in the Morris water maze procedure” value in the experiment on Aged, two year old mice worked out at 13 s. In addition, the “average time to rescue” value with C57BL76 mice (setting [1]) is 8.3 ± 1.8 s.
